According to patent EP2818471A1, “Nitrogen bicyclic compounds as inhibitors for Scyl1 and Grk5” (Max-Planck-Gesellschaft zur Förderung der Wissenschaften …, priority 2013, dated 2014):

Tested on: beta-TC6
Test: MTT cytotoxicity assay (cell viability and proliferation)
Type: cell-based, mouse
Settings: beta-TC6, 72 h treatment, concentrations up to 10 µM
Procedure: Using a MTT approach, we determined the effect on cell viability and proliferation of beta-TC6 and C2C12 cells to display potential cytotoxicity of the compounds according to the invention in vitro after a 72 h treatment.
For MTT (3-(4,5-dimethylthiazol-2-yl)-2,5-diphenyl tetrazolium bromide) transformation, 1/5 of total volume of a 5 mg/mL MTT stock solution was added to the cells as well as control wells and incubated at 37 °C, 5 % CO2 (v/v) for 1 h. Then 1/2 of total volume of MTT-stop solution was added and plates were incubated overnight in the dark at 25 °C. The optical density (OD) was measured using a multiwell spectrophotometer at a wavelength of 570 nm.

With `COc1cc(-c2ccc3ncc(-c4cccnc4)n3n2)cc(OC)c1OC` [compound 10, 3-(3-pyridyl)-6-(3,4,5-trimethoxyphenyl)imidazo[1,2-b]pyridazine] the toxic effect was “no toxic effect at all”.
